The data set is described as follows: pH dependent solubility of retigabine. The settings on record: around pH 2 (stomach) versus around pH 7 (lower intestine).

As for `CCOC(=O)Nc1ccc(NCc2ccc(F)cc2)cc1N` [Retigabine], the pH dependent solubility entry is reported as “more soluble in the acidic conditions of the stomach (around pH 2) than in the near neutral conditions of the lower intestine (around pH 7)”.

The record behind these values is patent US20120288544A1, “NOVEL RETIGABINE COMPOSITION” (GLAXO GROUP LIMITED, priority 2010, published 2012).
